Assay results as given in patent US11609178B2, “Apparatus for analysing a liquid sample comprising particles” (UNIVERSITY COURT OF THE UNIVERSITY OF ST ANDREWS, priority 2018, dated 2023).

Assays:
Format in all cases: cell-based
[1] = tested on: bacterial growth of samples; test: Detection apparatus, bacterial growth with antibiotics at EUCAST breakpoint, FIG. 8(a) / Table 1; design: key to S or R result (sensitive / resistant): S: sensitive; R: resistant; details: Table 1, FIG. 8(a); antibiotic at EUCAST breakpoint concentration
Method: (§1) FIG. 8(a) and FIG. 8(b) are plots showing bacterial growth of samples as a function of time in the presence of different types of antibiotics. FIGS. 8(a) and 8(b) illustrate break points for different types of antibiotics. Measurements derived using the data shown in FIGS. 8(a) and 8(b) are shown in Table 1 and Table 2, respectively.
(§2) At a fourth step, a test process is performed that includes incubation and obtaining readings. Tests will typically run for a maximum of 30 minutes.
(§3) At a fifth step, an analysis process is performed based on the readings obtained from the test process. The analysis process includes determining if the strain is sensitive or resistant to the or an antibiotic or other agent in the sample chamber based on the obtained readings. Determining whether a sample is sensitive or resistant to an antibiotic or other agent may be referred to as obtaining an S result or an R result. Determining if a sample is a S result or an R result may include comparing a reading to threshold criteria.
(§4) As a first example, if the sample fails to show a 50% inhibition, the sample will be declared R after 30 minutes. In some embodiments, the analysis process includes providing sensitivity results.

[2] = tested on: Klebsiella; test: Bacterial growth over time in urine samples with different antibiotics (FIG. 10); details: urine samples containing Klebsiella; growth curve compared with control line
Method: As a first stage a biological sample containing urine is obtained. A spinning process is applied to the sample and the sample is aliquoted or otherwise divided into wells. The samples are then incubated in an incubator. After a pre-determined time, each sample, in a sample chamber, is moved into a detection configuration with the detection apparatus. This may involve placing the sample in a cuvette into the sample chamber. This may involve sequentially moving a plurality of sample chambers into the detection configuration. More than one measurement for each sample may be performed and stored to establish growth curves, for example, those shown in FIGS. 6, 7, 8 and 10.
FIG. 10 is a plot of bacterial growth as a function of time in urine samples in the presence of different types of antibiotics. The urine samples contain a significant amount of Klebsiella resistant to meropenem and susceptible to penicillin, amoxicillin, gentamicin and ciprofloxacin. The control line is the upper most line.
The second upper most line correspond to results for a urine sample treated with meropenem. The second upper most line overlaps in part with the control line. The urine sample is thus shown to be resistant to meropenem. The other lines correspond to results for urine samples treated with ciprofloxacin, gentamicin, penicillin and amoxicillin.

[3] = tested on: bacterial growth of samples; test: Reference susceptibility test (Vitek 2), sample of FIG. 8(a) / Table 1; details: Table 1, sample of FIG. 8(a)
Source text: as §1

[4] = tested on: bacterial growth of samples; test: Reference susceptibility test (Vitek 2), sample of FIG. 8(b) / Table 2; details: Table 2, sample of FIG. 8(b)
Source text: as §1

[5] = tested on: bacterial growth of samples; test: Detection apparatus, bacterial growth with antibiotics at EUCAST breakpoint, FIG. 8(b) / Table 2; design: key to S or R result (sensitive / resistant): S: sensitive; R: resistant; details: Table 2, FIG. 8(b); antibiotic at EUCAST breakpoint concentration
Method: as §1, §2, §3, §4

[6] = tested on: E. coli; test: Bacterial growth over time by light scattering at different antibiotic concentrations (FIGS. 6 and 7); details: from plot of detector output vs time
Source text: Any suitable detection and analysis system may be used with the embodiments of FIGS. 1 to 5. In some embodiments a detection and analysis system as described in WO 2016/128747 is used. The content of WO 2016/128747 is hereby incorporated by reference. In some embodiments a light source in the form of a 635 nm wavelength laser is used (any light in the wavelength range 620-750 nm is used in some other embodiments). The laser in this embodiment is connected to a signal generator that is adapted to control a modulation frequency and phase of the laser output. The photodetector is connected to a digital phase sensitive detector (PSD). An input of an amplifier is connected to the signal generator. An output of the amplifier is connected to a digital oscilloscope 66. […]
The signal generator is arranged to modulate the output frequency of the laser source. […] The detected signal is filtered by the PSD. The PSD filters the detected signal from the photodetector. The PSD synchronizes the detected signal with the modulation applied to the light source to provide a dampening system that eliminates unwanted noise, for example, background electrical or luminous noise. The filtered signal is sent to the digital oscilloscope to be recorded. […]

| Compound | S or R result (sensitive / resistant) [1] | Time To Results [1] [min] | susceptibility of bacteria in urine sample [2] | Reference (Vitek 2 result) [3] [Mg/L] | Reference (Vitek 2 result) [4] | S or R result (sensitive / resistant) [5] | Time To Results [5] [min] | mode of action [6] | minimum inhibitory concentration (MIC) [6] |
| --- | --- | --- | --- | --- | --- | --- | --- | --- | --- |
| CC1(C)S[C@@H]2[C@H](NC(=O)[C@H](N)c3ccc(O)cc3)C(=O)N2[C@H]1C(=O)O [Amoxicillin] | (S) | 2.93 | susceptible |  |  |  |  |  |  |
| O=C(O)c1cn(C2CC2)c2cc(N3CCNCC3)c(F)cc2c1=O [Ciprofloxacin] | (S) | 4.4 | susceptible | ≤0.25 | 0.5 Mg/L | (S) | 3.37 |  |  |
| C[C@@H](O)[C@H]1C(=O)N2C(C(=O)O)=C(S[C@@H]3CN[C@H](C(=O)N(C)C)C3)[C@H](C)[C@H]12 [Meropenem, meropenem] | (S) | 2.57 | resistant | ≤0.25 |  | (S) | 2.2 | causes lysis and a reduction in scattering |  |
| CC[C@H]1OC(=O)[C@H](C)[C@@H](O[C@H]2C[C@@](C)(OC)[C@@H](O)[C@H](C)O2)[C@H](C)[C@@H](O[C@@H]2O[C@H](C)C[C@H](N(C)C)[C@H]2O)[C@](C)(O)C[C@@H](C)C(=O)[C@H](C)[C@@H](O)[C@]1(C)O [Erythromycin] |  |  |  |  | 1 Mg/L | (S) | 3.3 |  |  |
| CC1(C)S[C@@H]2[C@H](NC(=O)[C@H](N)c3ccccc3)C(=O)N2[C@H]1C(=O)O [Ampicillin] |  |  |  | 8 | >0.5 Mg/L | (R) | >30 |  |  |
| COc1cc(Cc2cnc(N)nc2N)cc(OC)c1OC [Trimethoprim] | (S) | 0.73 |  | ≤0.5 | 0.5-2 Mg/L | (S) | 7.33 |  |  |
| Augmentin (co-amox) | (S) | 2.2 |  | 2 | ≤2 Mg/L | (R) | >30 |  |  |
| COc1c(N2C[C@@H]3CCCN[C@@H]3C2)c(F)cc2c(=O)c(C(=O)O)cn(C3CC3)c12 [Moxifloxacin] |  |  |  | ≤0.25 |  |  |  |  |  |
| gentamicin | (S) | 0.73 | susceptible | ≤1 | 0.5-8 Mg/L | (S) | 0.37 |  | below 2 mg/L |
| penicillin |  |  | susceptible |  |  |  |  |  |  |
| CN[C@H](CC(C)C)C(=O)N[C@H]1C(=O)N[C@@H](CC(N)=O)C(=O)N[C@H]2C(=O)N[C@H]3C(=O)N[C@H](C(=O)N[C@H](C(=O)O)c4cc(O)cc(O)c4-c4cc3ccc4O)[C@H](O)c3ccc(c(Cl)c3)Oc3cc2cc(c3O[C@@H]2O[C@H](CO)[C@@H](O)[C@H](O)[C@H]2O[C@H]2C[C@](C)(N)[C@H](O)[C@H](C)O2)Oc2ccc(cc2Cl)[C@H]1O [Vancomycin] |  |  |  |  | 1 Mg/L | (S) | 7.33 |  |  |
| O=C1CN(/N=C/c2ccc([N+](=O)[O-])o2)C(=O)N1 [Nitrofurantoin] |  |  |  |  | 16 Mg/L | (S) | 3.37 |  |  |
